Experimental data from US11274082B2, “Tead inhibitors and uses thereof” (Ikena Oncology, Inc., priority 2019, dated 2022).
pEC50: −log10 of the molar value. Like-named read-outs stand apart in the source and are kept apart here.

Tests used:
[1] = system: TEAD; assay: TEAD reporter assay (Hippo Pathway TEAD Reporter - MCF7 cell line, luciferase); format: cell-based; conditions: Homo sapiens; for pEC50: TEAD Reporter - MCF7 cells, read-out: TEAD Reporter Assay EC50; for EC50: MCF7, read-out: TEAD Reporter Assay EC50 (uM)
Excerpt: TEAD inhibition can be assayed using Hippo Pathway TEAD Reporter—MCF7 Cell Line (BPS Bioscience, Catalog #: 60618).
The TEAD Reporter—MCF7 cell line contains the firefly luciferase gene under the control of TEAD responsive elements stably integrated into the human breast cancer cell line, MCF7. Inside the cells, basal unphosphorylated YAP/TAZ remains in the nucleus and induces the constitutive expression of luciferase reporter. The cell line is validated for the inhibition of the expression of luciferase reporter by the activators of the Hippo pathway.
• 1) Harvest TEAD Reporter—MCF7 cells from culture in growth medium and seed cells at a density of 35,000 cells per well into white clear-bottom 96-well microplate in 45 μl of assay medium. • 2) Incubate cells at 37° C. in a CO2 incubator for overnight. • 3) Dilute the activators (H2O2 or okadaic acid) stock in assay medium. Add 5 μl of diluted activators to the wells. The final concentration of DMSO in assay medium is 0.1%. • 4) Add 5 μl of assay medium with same concentration of DMSO without activator to control wells. • 5) Add 50 μl of assay medium with DMSO to cell-free control wells (for determining background luminescence). • 6) Set up each treatment in at least triplicate. • 7) Incubate cells at 37° C. in a CO2 incubator for 5-6 hours. • 8) Perform luciferase assay using the ONE-Step™ Luciferase Assay System following the protocol provided: Add 100 μl of ONE-Step™ Luciferase reagent per well and rock at room temperature for ˜15 minutes. Measure luminescence using a luminometer. • 9) Data Analysis: Obtain the background-subtracted luminescence by subtracting the average background luminescence (cell-free control wells) from the luminescence reading of all wells.
(§1) Certain compounds were tested in TEAD reporter assay, and in H226 and H28. A: EC50<0.1 uM; B: 0.1 uM≤EC50≤0.5 uM; C: EC50>0.5 uM.

[2] = system: H226; assay: Anti-proliferation assay in H226 cells; format: cell-based; conditions: Homo sapiens; for pEC50: NCI-H226, H226 cells, read-out: H226 EC50; for EC50: NCI-H226, read-out: H226 EC50 (uM)
Procedure: as §1
Individual cell lines were grown in medium according to supplier instructions and seeded into 96-well plates at a density that ensured logarithmic growth over 72 hours. TEAD inhibitor compounds were administered to cells at a top concentration of 10 μm and subsequently a 10 point 3-fold serial dilution was conducted. After 72 hours, proliferation was quantified using Cell TITERGLO™ (Promega, Inc.) and compared to vehicle control. IC50 and EC50 values were generated using XLFit curve fitting software.

Structure (SMILES)	pEC50 [1]	pEC50 [2]	EC50 [1] [µM]	EC50 [2] [µM]
CNS(=O)(=O)c1ccc(NC(CO)c2ccccc2)c(-c2cn(C)cn2)c1 (stereo in doubt) [I-39, 4-[[(1S)-2-Hydroxy-1-phenyl-ethyl]amino]-N-methyl-3-(1-methylimidazol-4-yl)benzenesulfonamide]	< 6.30	< 6.30	–	–
CNS(=O)(=O)c1ccc(Oc2cccc(C(F)(F)F)c2)c(B(O)O)c1 [I-18, [5-(methylsulfamoyl)-2-[3-(trifluoromethyl)phenoxy]phenyl]boronic acid]	–	< 6.30	–	–
CNS(=O)(=O)c1ccc(Oc2cccc(C(F)(F)F)c2)c(-c2cnc(C)[nH]2)c1 [I-19, N-Methyl-3-(2-methyl-1H-imidazol-5-yl)-4-[3-(trifluoromethyl)phenoxy]benzenesulfonamide]	–	< 6.30	–	–
CNS(=O)(=O)c1ccc(Nc2cccc(C(F)(F)F)c2)c(C(=O)N(C)OC)c1 [I-21, N-methoxy-N-methyl-5-(methylsulfamoyl)-2-[3-(trifluoromethyl)anilino]benzamide]	–	< 6.30	–	–
CNS(=O)(=O)c1ccc(Nc2cccc(C(F)(F)F)c2)c(C(C)=O)c1 [I-23, 3-acetyl-N-methyl-4-[3-(trifluoromethyl)anilino]benzenesulfonamide]	< 6.30	< 6.30	–	–
CNS(=O)(=O)c1ccc(Oc2cccc(C(F)(F)F)c2)c(C(N)=O)c1 [I-24]	< 6.30	< 6.30	–	–
CNS(=O)(=O)c1ccc(Oc2cccc(C(F)(F)F)c2)c(-c2nc(C)c[nH]2)c1 [I-25, N-Methyl-3-(4-methyl-1H-imidazol-2-yl)-4-[3-(trifluoromethyl)phenoxy]benzenesulfonamide]	< 6.30	–	–	–
COC(=O)c1ccc(NCc2ccccc2)c(-c2nnn(C)n2)c1 [I-26, Methyl 4-(benzylamino)-3-(2-methyltetrazol-5-yl)benzoate]	< 6.30	< 6.30	–	–
CNS(=O)(=O)c1ccc(NC(=O)c2ccccc2)c(-c2cn(C)cn2)c1 [I-29, N-[2-(1-Methylimidazol-4-yl)-4-(methylsulfamoyl)phenyl]benzamide]	–	–	> 0.5	> 0.5
CNS(=O)(=O)c1cnc(N[C@@H](C)c2ccccc2)c(-c2cn(C)cn2)c1 [I-34, N-Methyl-5-(1-methylimidazol-4-yl)-6-[[(1S)-1-phenylethyl]amino]pyridine-3-sulfonamide]	< 6.30	< 6.30	–	–
CNS(=O)(=O)c1cnc(N[C@H](C)c2ccccc2)c(-c2cn(C)cn2)c1 [I-35, N-Methyl-5-(1-methylimidazol-4-yl)-6-[[(1R)-1-phenylethyl]amino]pyridine-3-sulfonamide]	6.30 to 7.00	6.30 to 7.00	–	–
CC[C@@H](Nc1ccc(S(=O)(=O)NC)cc1-c1cn(C)cn1)c1ccccc1 [I-45, N-Methyl-3-(1-methylimidazol-4-yl)-4-[[(1R)-1-phenylpropyl]amino]benzenesulfonamide]	–	–	0.1 to 0.5	0.1 to 0.5
CC(C)NS(=O)(=O)c1ccc(NCc2ccccc2)c(-c2cn(C)cn2)c1 [I-46, 4-(Benzylamino)-N-isopropyl-3-(1-methylimidazol-4-yl) benzenesulfonamide]	–	–	> 0.5	0.1 to 0.5
CNS(=O)(=O)c1ccc(N[C@@H]2CCCc3ccccc32)c(-c2cn(C)cn2)c1 [I-47, N-Methyl-3-(1-methylimidazol-4-yl)-4-[[(1R)-tetralin-1-yl]amino]benzenesulfonamide]	6.30 to 7.00	6.30 to 7.00	–	–
CNS(=O)(=O)c1ccc(NCc2ccccc2)c(-c2cn(C(C)C)cn2)c1 [I-50, 4-(Benzylamino)-3-(1-isopropylimidazol-4-yl)-N-methyl-benzenesulfonamide]	6.30 to 7.00	6.30 to 7.00	–	–
CNS(=O)(=O)c1ccc(NCc2ccccc2)c(-c2cn(C3CC3)cn2)c1 [I-51, 4-(Benzylamino)-3-(1-cyclopropylimidazol-4-yl)-N-methyl-benzenesulfonamide]	> 7.00	> 7.00	–	–
CNS(=O)(=O)c1ccc(N[C@H]2CCCc3ccccc32)c(-c2cn(C)cn2)c1 [I-52, N-Methyl-3-(1-methylimidazol-4-yl)-4-[[(1S)-tetralin-1-yl]amino]benzenesulfonamide]	< 6.30	< 6.30	–	–

Second part, led by results:

pEC50 [1]	pEC50 [2]	Structure (SMILES)	EC50 [1] [µM]	EC50 [2] [µM]
< 6.30	< 6.30	CNS(=O)(=O)c1ccc(N[C@H]2CCc3ccccc32)c(-c2cn(C)cn2)c1 (single isomer, unassigned) [I-58]	–	–
> 7.00	> 7.00	CNS(=O)(=O)c1ccc(N[C@@H]2CCc3ccccc32)c(-c2cn(C)cn2)c1 (single isomer, unassigned) [I-59]	–	–
–	< 6.30	CNS(=O)(=O)c1ccc(Oc2cccc(C(F)(F)F)c2)c(-c2cc(C)n[nH]2)c1 [I-20, N-methyl-3-(3-methyl-1H-pyrazol-5-yl)-4-[3-(trifluoromethyl)phenoxy]benzenesulfonamide]	–	–
< 6.30	< 6.30	CNS(=O)(=O)c1ccc(Oc2cccc(C(F)(F)F)c2)c(-c2cn(C)cn2)c1 [I-22, Y-Methyl-3-(1-methyl-1H-imidazol-4-yl)-4-(3-(trifluoromethyl)phenoxy)benzenesulfonamide]	–	–
< 6.30	< 6.30	CNS(=O)(=O)c1ccc(N[C@@H](C)c2ccccc2)c(-c2cn(C)cn2)c1 [I-28, N-Methyl-3-(1-methylimidazol-4-yl)-4-[[(1S)-1-phenylethyl]amino]benzenesulfonamide]	–	–
< 6.30	< 6.30	CNS(=O)(=O)c1ccc(N[C@H](CO)c2ccccc2)c(-c2cn(C)cn2)c1 [I-40, 4-[[(1S)-2-Hydroxy-1-phenyl-ethyl]amino]-N-methyl-3-(1-methylimidazol-4-yl)benzenesulfonamide]	–	–
6.30 to 7.00	> 7.00	CCNS(=O)(=O)c1ccc(NCc2ccccc2)c(-c2cn(C)cn2)c1 [I-41, 4-(Benzylamino)-N-ethyl-3-(1-methylimidazol-4-yl)benzenesulfonamide]	–	–
< 6.30	6.30 to 7.00	Cn1cnc(-c2cc(S(N)(=O)=O)ccc2NCc2ccccc2)c1 [I-42, 4-(Benzylamino)-3-(1-methylimidazol-4-yl)benzenesulfonamide]	–	–
< 6.30	6.30 to 7.00	Cn1cnc(-c2cc(S(C)(=O)=O)ccc2NCc2ccccc2)c1 [I-44, N-Benzyl-2-(1-methylimidazol-4-yl)-4-methylsulfonyl-aniline]	–	–
< 6.30	6.30 to 7.00	Cn1cnc(-c2cc(S(C)(=O)=O)ccc2Nc2cc(C(F)(F)F)ccn2)c1 [I-48, N-[2-(1-Methylimidazol-4-yl)-4-methylsulfonyl-phenyl]-4-(trifluoromethyl)pyridin-2-amine]	–	–
< 6.30	6.30 to 7.00	Cn1cnc(-c2cc(S(N)(=O)=O)ccc2Nc2cc(C(F)(F)F)ccn2)c1 [I-49, 3-(1-Methylimidazol-4-yl)-4-[[4-(trifluoromethyl)-2-pyridyl]amino]benzenesulfonamide]	–	–
< 6.30	< 6.30	CC[C@H](Nc1ccc(S(=O)(=O)NC)cc1-c1cn(C)cn1)c1ccccc1 [I-53, N-Methyl-3-(1-methylimidazol-4-yl)-4-[[(1S)-1-phenylpropyl]amino]benzenesulfonamide]	–	–
–	> 7.00	CNS(=O)(=O)c1ccc(Nc2ccc(C(F)(F)F)cn2)c(-c2cn(C3CC3)cn2)c1 [I-87, 3-(1-Cyclopropylimidazol-4-yl)-N-methyl-4-[[5-(trifluoromethyl)-2-pyridyl]amino]benzenesulfonamide]	–	–
